# “And” between values parts separate entries of the source, which are not always exact repeats. Identical values can stand only once. Records with an inconclusive call do not appear. The source made the active and inactive calls.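 How the source made its calls: active means fitted half-maximal concentration of signal decrease at or below twice the sample's top tested concentration; inconclusive means flat curve between -70 and -30 percent, or poor fit; inactive means flat within 30 percent, signal rise, or potency above limit.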
# Biological target: T. gondii ME49Luc in IFN-y HeLa, luciferase, 72 h
# Assay: inhibitors of Toxoplasma growth in IFN-γ-primed HeLa – cell-based, ME49Luc, luciferase, 72 h, dose response (AID 1259418)
row,Compound,AC50
1,CCOc1ccccc1-c1nc(CN(c2ccc(OC)cc2)S(=O)(=O)c2ccc(C)cc2)c(C)o1,10.7 µM
2,COCCCN(Cc1ccco1)c1nc(-c2ccc(OC)cc2)nc2ccccc12,16.9 µM
3,Fc1cccc(CSc2nc(NCc3ccc(Cl)cc3)c3ccccc3n2)c1,14 µM
4,O=C(Cc1ccc(Cl)cc1)N1CC2(CCN(Cc3ccc(C(F)(F)F)cc3)CC2)C1,22.2 µM
5,Cc1ccccc1-c1nc(CN2CCN(C(=O)NCCc3ccccc3)CC2)c(C)o1,17.4 µM
6,O=C(CCn1c2c(c3ccccc31)CCCC2)N1CCC(c2ccncc2)CC1,15.3 µM
7,O=S(=O)(c1ccc2c(c1)CCCC2)N1CCC2(CC1)NCCN=C2NCc1ccccc1F,16.4 µM
8,O=C(NCCc1csc(-c2ccccc2)n1)C1CCN(C(=O)c2ccc(F)c(Cl)c2)CC1,5.61 µM
9,O=C(c1ccc(-n2c(=S)[nH]c3ccccc3c2=O)cc1)N1CCC(O)(c2cccc(C(F)(F)F)c2)CC1,38 µM
10,O=C(CC1N=C2c3ccccc3N=C(SCc3cccc(Cl)c3)N2C1=O)NCCc1ccccc1 (stereo not given),19.3 µM
11,COc1ccccc1C(=O)Nc1ccc(-c2nc(-c3ccc(C)cc3)co2)cc1,19.1 µM
12,CCOc1ccc(CC(=O)N2CCC3(CC2)Nc2cc(F)ccc2-n2cccc23)cc1OCC,> 39 µM (inactive)
13,Cc1ccc(S(=O)(=O)Nc2ccc3c(c2)C(=O)N([C@H](C)CO)C[C@H](C)[C@H](CN(C)Cc2ccc(C(F)(F)F)cc2)O3)cc1,13.1 µM
14,COc1ccc(-c2nc(CN(c3cccc(OC)c3)S(=O)(=O)c3ccc(C)cc3)c(C)o2)cc1,8.49 µM
15,C/C=C/c1ccc([C@H]2[C@@H](CO)N3CCCCN(S(=O)(=O)c4ccc(OC)cc4)C[C@H]23)cc1,15.7 µM
16,Cn1cc(-c2cnc(Nc3ccccc3)nc2)cc1C(=O)Nc1cccc(O)c1,23.6 µM
17,CCC(C)Nc1nc(-c2ccc(OC)cc2)nc2ccccc12 (stereo not given),> 39 µM (inactive)
18,COCC(=O)N(C[C@H]1N[C@H](CO)[C@@H]1c1ccc(C2=CCCC2)cc1)C1CCCC1,16.3 µM
19,Cc1ccc(CNC2=NCCNC23CCN(S(=O)(=O)c2cc(C)c(C)cc2C)CC3)cc1,4.79 µM
20,COc1cccc(S(=O)(=O)N2CCCCN3[C@H](CO)[C@@H](c4ccc(C#CCC(C)C)cc4)[C@@H]3C2)c1,5.58 µM and 10.4 µM and 10.5 µM
21,Cc1oc(-c2cccc(Cl)c2)nc1CN(c1ccccc1)S(=O)(=O)c1cccs1,10.4 µM
22,Cc1ccc(-c2nc(Cn3nnc(-c4nc(-c5cccs5)no4)c3C)c(C)o2)cc1,3.2 µM
23,O=C(NCCc1csc(-c2ccccc2)n1)C1CCN(C(=O)c2ccccc2Cl)CC1,25.8 µM

row,Compound,AC50
1,O=C(Cc1ccncc1)N1CCCCN2[C@H](C1)[C@@H](c1ccc(C#Cc3ccccc3F)cc1)[C@@H]2CO,5.02 µM
2,O=C(Nc1ccc(F)cc1)N1CC(=O)N2[C@@H](CO)[C@@H](c3ccc(-c4cccc(F)c4)cc3)[C@@H]2C1,18.5 µM
3,Cc1cc(C)c(S(=O)(=O)N2CCC3(CC2)NCCN=C3NCc2ccccc2C)cc1C,6.27 µM
4,COc1ccc(NC(=O)CN2CCC3(CC2)N=C(c2cccc(C)c2)C(=O)N3)c(OC)c1,29.4 µM
5,Cc1ccc(-c2nc(CN3CCN(C(=O)Nc4cccc(Cl)c4)CC3)c(C)o2)cc1,> 39 µM (inactive)
6,O=C(CCC1N=C2c3ccccc3N=C(SCc3cc(=O)n4cc(Cl)ccc4n3)N2C1=O)NCc1cccs1 (stereo not given),32 µM
7,CCCCNC(=O)CCC1N=C2c3ccccc3N=C(SCc3cccc(Cl)c3)N2C1=O (stereo not given),14.6 µM
8,COc1ccc(-c2nc(NCCN3CCOCC3)c3ccccc3n2)cc1,14.2 µM
9,O=C(c1ccc(F)cc1)N1CC(=O)N2[C@H](CO)[C@H](c3ccc(C#CCC4CCCC4)cc3)[C@@H]2C1,14.4 µM and 12 µM
10,COc1ccc(-c2nc(NCCN3CCN(C)CC3)c3ccccc3n2)cc1,3.52 µM and 27.4 µM
11,OC[C@@H]1[C@@H](c2ccc(-c3cccc(F)c3)cc2)[C@@H]2CN(Cc3cncnc3)CCCCN12,36.1 µM
12,O=C(Cc1ccccn1)N1CC(=O)N2[C@@H](CO)[C@@H](c3ccc(C#CCC4CCCC4)cc3)[C@@H]2C1,13.2 µM
13,COCCCNc1nc(-c2ccc(OC)cc2)nc2ccccc12,20 µM
14,CCOc1ccccc1-c1nc(CN(c2ccc(C)cc2)S(=O)(=O)c2cccs2)c(C)o1,11.2 µM
15,COCCNc1nc(-c2ccc(OC)cc2)nc2ccccc12,18.4 µM
16,O=S(=O)(c1cccs1)N1CCC2(CC1)NCCN=C2NCc1ccc(C(F)(F)F)cc1,23 µM
17,CCOc1ccccc1-n1c(C(C)N2CCN(C(=O)COc3ccc(Cl)cc3)CC2)nc2ccccc2c1=O (stereo not given),7.75 µM
18,CN(C)C(=O)c1ccc(-c2ccc3c(c2)[C@@H]2[C@@H](CCN2C(=O)C2CCCC2)[C@@H](CO)N3C)cc1,21.1 µM
19,COc1ccc(-c2nc3c(s2)CN(S(=O)(=O)c2cc(C)cc(C)c2)CC3)cc1,3.89 µM and 11.8 µM
20,Cc1ccc(-c2nc(CN(c3ccccc3C)S(=O)(=O)c3cccs3)c(C)o2)cc1,9.63 µM
21,COc1ccc(-c2nc(Nc3ccc(OC)cc3OC)c3ccccc3n2)cc1,13.3 µM
22,Cc1cccc(C(=O)Nc2c(C(=O)N3CCN(c4ccccn4)CC3)[nH]c3ccccc23)c1,> 39 µM (inactive)

# — PubChem BioAssay AID1259418 (Broad Institute, 2018)
